Source: US20100035896A1, “Combination of N-(3-methoxy-5-methylpyrazin-2-yl)-2-(4-[1,3,4-oxadiazol-2-yl]phenyl)pyridine-3-sulphonamide and an anti-mitotic cytotoxic agent” (ASTRAZENECA AB, priority 2004, published 2010)
Ends that are not written are not given here.

Legend:
[1] = test system: Human ovarian tumour cell lines (OVCA 433 and HEY); assay: Apoptosis in serum-starved ovarian tumour cell lines, cell detection ELISA Plus kit; format: cell-based; conditions: HEY and OVCA 433 cells, 24 h serum starvation, 24 h treatment; Compound (I) 1 μM, paclitaxel 60 nM, alone or combined; FIG. 1
Source text: To evaluate the effect of Compound (I) in combination with an anti-mitotic cytotoxic agent (paclitaxel) on the growth of various carcinoma cells, we utilised two established human ovarian cell lines (HEY and OVCA 433**) which express functional endothelin A (ETa) receptors and secrete high levels of endothelin-1 (ET-1). ET-1 is an anti-apoptotic factor in many cell types, having this effect via ETa receptors. ** OVCA 433 was established from ascites obtained from a patient with advanced serous ovarian adenocarcinoma (Tsa, S W et al., (1995) Exp. Cell Res. 218: 499-507) and HEY was derived from a xenograft of a peritoneal deposit of a cystoadeonocarcinoma of the ovary (Buick, R. N. et al., (1985) Cancer Research 45: 3668-3676). PPC-1 cells were originally derived from a human prostate tumour and were obtained from the laboratory of Dr. J. Nelson, University of Pittsburgh). In vitro studies in ovarian cells: Human ovarian tumour cell lines (OVCA 433 and HEY) were maintained in culture media containing serum until sufficient numbers were available for experimentation. […] Following treatment for 24 hours, apoptosis was measured by a standard cell detection ELISA Plus kit (Boehringer Manheim). […] At the end of this 24 hour period, viable cell numbers were measured by a standard MTT assay (Mossman, J Inmunol Methods. (1983) 65, 55-63). […]

[2] = test system: Human prostate tumour cells (PPC-1); assay: Viable cell numbers of prostate tumour cells by MTT assay; format: cell-based; conditions: PPC-1 cells, FIG. 3; for numbers of viable prostate cells remaining in culture: cytotoxic alone at 10^-6, 10^-8 or 10^-10 M for 24 hours
Source text: ** OVCA 433 was established from ascites obtained from a patient with advanced serous ovarian adenocarcinoma (Tsa, S W et al., (1995) Exp. Cell Res. 218: 499-507) and HEY was derived from a xenograft of a peritoneal deposit of a cystoadeonocarcinoma of the ovary (Buick, R. N. et al., (1985) Cancer Research 45: 3668-3676). PPC-1 cells were originally derived from a human prostate tumour and were obtained from the laboratory of Dr. J. Nelson, University of Pittsburgh).
(§1) In vitro studies in ovarian cells: Human ovarian tumour cell lines (OVCA 433 and HEY) were maintained in culture media containing serum until sufficient numbers were available for experimentation. At this time the cells were transferred into media without serum. After 24 hours of serum starvation, cells were treated with either Compound (I) (1 μM) or paclitaxel (60 nM), or Compound (I)+paclitaxel. Following treatment for 24 hours, apoptosis was measured by a standard cell detection ELISA Plus kit (Boehringer Manheim). In vitro studies in prostate cells: Human prostate tumour cells (PPC-1) were maintained in culture medium containing serum until sufficient numbers were available for experimentation. After this time cells were transferred into media without serum. After 23 hours of serum starvation cells were treated with either endothelin 1 (10^−7M) or endothelin 1+Compound (I) at 10^−7M. An additional group of cells received vehicle control alone. One hour later cells were treated with paclitaxel or docetaxel at either 10^−6M, 10^−8M or 10^−10M for 24 hours. At the end of this 24 hour period, viable cell numbers were measured by a standard MTT assay (Mossman, J Inmunol Methods. (1983) 65, 55-63). In vivo studies: Athymic mice were given subcutaneous injections of 1.5×10^6 HEY cells into the flank. After 7 days, when established tumours had formed, mice were randomized to 4 treatment groups with 10 mice in each group. One group was treated with Compound (I) given by daily intraperitoneal injections (10 mg/kg/day) for 21 days. A second group received intravenous injections of paclitaxel (20 mg/kg) every 4 days for 3 doses. A third group received both paclitaxel and Compound (I) and a fourth group was given injections in the same way using vehicle alone. The experiments were replicated three times.

[3] = test system: HEY ovarian cell xenografts; assay: Growth of subcutaneous HEY ovarian carcinoma xenografts in athymic mice; format: in vivo; conditions: Compound (I) 10 mg/kg/day i.p. for 21 days, paclitaxel 20 mg/kg i.v. every 4 days for 3 doses, alone or both, FIG. 2
Experimental: as §1, with “After 7 days, when established tumours had formed, mice were randomized to 4 treatment groups with 10 mice in each group. One group was treated with Compound (I) given by daily intraperitoneal injections (10 mg/kg/day) for 21 days. A second group received intravenous injections of paclitaxel (20 mg/kg) every 4 days for 3 doses. A third group received both paclitaxel and Compound (I) and a fourth group was given injections in the same way using vehicle alone. The experiments were replicated three times.” left out

Compound	effect on apoptosis [1]	effect on the endothelin-1 reversal of cytotoxic-induced reduction in viable cell number ([2]; endothelin 1 10^-7 M + Compound (I) 10^-7 M, one hour before paclitaxel or docetaxel)	inhibition of HEY ovarian cell xenografts (tumour growth) [3]	numbers of viable prostate cells remaining in culture [2]	effect on the paclitaxel- or docetaxel-induced reduction in viable cell number ([2]; endothelin 1 10^-7 M given one hour before paclitaxel or docetaxel)
COc1nc(C)cnc1NS(=O)(=O)c1cccnc1-c1ccc(-c2nnco2)cc1 [Compound (I), N-(3-methoxy-5-methylpyrazin-2-yl)-2-(4-[1,3,4-oxadiazol-2-yl]phenyl)pyridine-3-sulphonamide]	no statistically significant effects	blocked	significant inhibition	–	–
CC(=O)O[C@@]12CO[C@@H]1C[C@H](O)[C@@]1(C)C(=O)[C@H](O)C3=C(C)[C@@H](OC(=O)[C@H](O)[C@@H](NC(=O)OC(C)(C)C)c4ccccc4)C[C@@](O)([C@@H](OC(=O)c4ccccc4)[C@H]21)C3(C)C [docetaxel, Docetaxel]	–	–	–	significantly reduced	–
CC(=O)O[C@H]1C(=O)[C@@]2(C)[C@H]([C@H](OC(=O)c3ccccc3)[C@]3(O)C[C@H](OC(=O)[C@H](O)[C@@H](NC(=O)c4ccccc4)c4ccccc4)C(C)=C1C3(C)C)[C@]1(OC(C)=O)CO[C@@H]1C[C@@H]2O [paclitaxel, Paclitaxel]	no statistically significant effects	–	degree of inhibition was similar	significantly reduced	–
endothelin-1 (CSCSSLMDKECVYFCHLDIIW; ends and bridges not checked; cysteine pairing not given here; UniProt P05305 53-73, looked up) [endogenous 21 amino acid peptide, anti-apoptotic factor acting via ETa receptors]	–	–	–	–	reversed
